For one experiment, the target named is T1, PknB (Mycobacterium tuberculosis, UniProt P9WI81).
T1 construct: made in house
The experiment can be described thus: biochemical. Also on record: species or system M. tuberculosis. As to conditions: for Ki: 3 nM PknB, 6 uM GarA, 3 μM ATP, 30 min, competitive tight-binding fit, several symbols in a cell = repeat determinations, read-out: Ki Values.

The test system of experiment [1] is Mycobacterium tuberculosis H37Ra. The experiment can be described thus: Mycobacterium tuberculosis growth inhibition assay (microtiter dilution, resazurin reduction). To be noted: 7H9 broth, 9 days + 24 h resazurin, lowest concentration inhibiting resazurin reduction by >70%, several symbols in a cell = repeat determinations. The experiment is classed as cell-based. In outline:
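Resazurin-based microtiter dilution MIC: compounds in 7- or 11-step two-fold series with ~1×10^6 cells/mL H37Ra in 7H9/10% ADC, 9 days at 37 °C, then 24 h with dye. MIC is the lowest concentration giving >70% inhibition of resazurin reduction relative to DMSO controls, by 492/595 nm fluorescence.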
In general terms: Resazurin is reduced to fluorescent resorufin, in cell work by metabolically active cells.

Counter-ions that a name gives are not always drawn.

T1 sequence (P9WI81 whole entry): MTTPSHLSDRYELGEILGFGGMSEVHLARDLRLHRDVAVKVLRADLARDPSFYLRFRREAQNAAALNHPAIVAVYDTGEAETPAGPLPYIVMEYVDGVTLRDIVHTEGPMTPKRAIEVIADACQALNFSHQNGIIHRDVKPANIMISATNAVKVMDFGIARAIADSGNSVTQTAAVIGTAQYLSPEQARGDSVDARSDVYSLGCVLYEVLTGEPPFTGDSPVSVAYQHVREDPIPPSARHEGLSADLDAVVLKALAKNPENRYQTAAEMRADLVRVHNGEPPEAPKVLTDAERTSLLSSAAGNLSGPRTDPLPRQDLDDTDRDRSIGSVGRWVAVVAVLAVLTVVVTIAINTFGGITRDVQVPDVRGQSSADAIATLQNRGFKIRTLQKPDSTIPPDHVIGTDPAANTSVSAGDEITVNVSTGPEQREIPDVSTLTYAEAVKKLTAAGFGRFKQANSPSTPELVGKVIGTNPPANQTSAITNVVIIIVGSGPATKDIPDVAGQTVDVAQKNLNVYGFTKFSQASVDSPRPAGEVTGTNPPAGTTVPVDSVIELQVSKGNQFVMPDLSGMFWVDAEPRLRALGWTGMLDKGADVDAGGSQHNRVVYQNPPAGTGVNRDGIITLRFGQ

As to `CC(O)c1ccc(-c2nccc(Nc3cc(C4CC4)[nH]n3)n2)cc1` (centres unmarked) [Compound 312, 1-[4-[4-[(5-cyclopropyl-1H-pyrazol-3-yl)amino]pyrimidin-2-yl]phenyl]ethanol], the Ki – broadly, the dissociation constant of the complex between target and ligand, obtained from inhibition or displacement – at PknB was 10 to 50 nM. For the same molecule, in experiment [1], the MIC values result is “B+”.

`NS(=O)(=O)c1ccc(-c2nccc(Nc3cc(C4CC4)[nH]n3)n2)cc1` [Compound 323, 4-[4-[(5-cyclopropyl-1H-pyrazol-3-yl)amino]pyrimidin-2-yl]benzenesulfonamide]: the inhibition constant (Ki) on PknB lay within 10 to 50 nM. Further, the MIC values result in experiment [1] is given as “B++”.

`CNS(=O)(=O)c1ccc(-c2ncc(C)c(Nc3cc(C4CC4)[nH]n3)n2)s1` [Compound 33, 5-[4-[(5-cyclopropyl-1H-pyrazol-3-yl)amino]-5-methyl-pyrimidin-2-yl]-N-methyl-thiophene-2-sulfonamide]: the Ki at PknB was 10 to 50 nM. For the same molecule, the MIC values entry in experiment [1] was “B+”.

For `CS(=O)(=O)c1ccc(Nc2nccc(Nc3cc(C4CC4)[nH]n3)n2)cc1` [Compound 94, N′-(5-cyclopropyl-2H-pyrazol-3-yl)-N-(4-methylsulfonylphenyl)-pyrimidine-2,4-diamine], the Ki on PknB is 1 to 10 nM. The MIC values entry in experiment [1] is “B++, B+”.

Regarding `C#Cc1cnc(-c2ccc(CN)s2)nc1Nc1cc(C2CC2)[nH]n1` [Compound 167, 2-(5-(aminomethyl)thiophen-2-yl)-N-(5-cyclopropyl-1H-pyrazol-3-yl)-5-ethynylpyrimidin-4-amine hydrochloride], at PknB, the “Ki Values” was “A, A, A, B**”. Moreover, the MIC values result in experiment [1] is reported as “B++”.

On to `CC(C)c1cc(Nc2nc(-c3ccc(S(N)(=O)=O)s3)ncc2Cl)n[nH]1` [Compound 225, 5-[5-chloro-4-[(5-isopropyl-1H-pyrazol-3-yl)amino]-pyrimidin-2-yl]thiophene-2-sulfonamide], for which, on PknB, the inhibitory constant (Ki) lay in the range of 1 to 10 nM. In addition, the MIC values entry in experiment [1] is “B++”.

Regarding `CC(C)(C)OC(=O)/N=C(\N)c1ccc(-c2ncc(Cl)c(Nc3cc(C4CC4)[nH]n3)n2)s1` [Compound 197, tert-butyl [[amino-[5-[5-chloro-4-[(5-cyclopropyl-1H-pyrazol-3-yl)amino]-pyrimidin-2-yl]-2-thienyl]-methylene]amino]formate], the Ki at PknB lay within 500 to 1000 nM. In addition, the MIC values result in experiment [1] was “B+”.
